Results reported in ChEMBL document CHEMBL4265951, “Multi-target-directed ligands for Alzheimer's disease: Discovery of chromone-based monoamine oxidase/cholinesterase inhibitors” (Eur J Med Chem, 2018).
Active and inactive are the calls of the source. The calls are words filed in the database; no cut-off is given here.

Tests used:
[1] = molecular target: Beta-secretase 1 (Homo sapiens, UniProt P56817); test: Inhibition of human BACE1 using rhodamine-EVNLDAEFK-quencher as substrate after 60 mins by FRET assay
Chain of Beta-secretase 1 (P56817 whole entry): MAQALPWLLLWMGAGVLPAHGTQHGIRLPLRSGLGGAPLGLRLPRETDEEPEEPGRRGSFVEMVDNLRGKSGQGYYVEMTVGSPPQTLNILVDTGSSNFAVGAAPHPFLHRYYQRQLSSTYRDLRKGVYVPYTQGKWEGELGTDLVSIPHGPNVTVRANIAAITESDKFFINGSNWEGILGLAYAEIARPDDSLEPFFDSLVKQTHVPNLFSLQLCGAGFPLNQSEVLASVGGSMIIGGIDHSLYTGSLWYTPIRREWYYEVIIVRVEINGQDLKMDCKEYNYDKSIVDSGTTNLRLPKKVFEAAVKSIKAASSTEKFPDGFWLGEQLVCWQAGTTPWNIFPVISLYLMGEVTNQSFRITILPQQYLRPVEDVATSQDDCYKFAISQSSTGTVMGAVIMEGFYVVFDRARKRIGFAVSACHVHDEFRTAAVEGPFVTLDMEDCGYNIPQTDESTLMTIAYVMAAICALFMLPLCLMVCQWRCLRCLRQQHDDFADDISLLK

[2] = test system: SH-SY5Y; test: Cytotoxicity against human SH-SY5Y cells assessed as reduction in cell viability at 0.1 to 50 uM after 48 hrs by SRB assay; type: cell-based
[3] = molecular target: T1, Cholinesterase (Homo sapiens, UniProt P06276); test: Inhibition of human serum BuChE at 10 uM using butyrylthiocholine as substrate pretreated for 5 mins followed by substrate addition measured after 5 mins by Ellman's method
T1 sequence (P06276 whole entry): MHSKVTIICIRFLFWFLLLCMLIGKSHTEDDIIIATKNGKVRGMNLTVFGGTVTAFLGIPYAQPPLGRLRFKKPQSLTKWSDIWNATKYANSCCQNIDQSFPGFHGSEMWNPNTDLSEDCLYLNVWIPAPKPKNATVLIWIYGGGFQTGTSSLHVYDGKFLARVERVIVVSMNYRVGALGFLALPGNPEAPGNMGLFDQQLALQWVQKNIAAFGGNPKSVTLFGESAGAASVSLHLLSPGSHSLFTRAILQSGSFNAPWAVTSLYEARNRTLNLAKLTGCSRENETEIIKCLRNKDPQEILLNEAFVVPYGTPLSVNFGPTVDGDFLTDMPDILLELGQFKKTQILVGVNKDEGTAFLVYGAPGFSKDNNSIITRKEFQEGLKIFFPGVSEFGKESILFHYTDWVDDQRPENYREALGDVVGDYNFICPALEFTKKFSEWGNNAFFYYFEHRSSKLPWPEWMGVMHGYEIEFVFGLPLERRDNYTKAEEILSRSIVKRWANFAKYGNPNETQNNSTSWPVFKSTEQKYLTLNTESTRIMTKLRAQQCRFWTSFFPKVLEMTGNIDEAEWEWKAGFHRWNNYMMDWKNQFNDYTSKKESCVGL

[4] = test system: SH-SY5Y; test: Cytotoxicity against human SH-SY5Y cells assessed as reduction in cell viability at 0.1 to 50 uM after 48 hrs by resazurin reduction assay; type: cell-based
[5] = molecular target: T2, Acetylcholinesterase (Homo sapiens, UniProt P22303); test: Inhibition of human AChE using acetylthiocholine iodide as substrate pretreated for 5 mins followed by substrate addition measured after 5 mins by Ellman's method
T2 sequence (P22303 whole entry): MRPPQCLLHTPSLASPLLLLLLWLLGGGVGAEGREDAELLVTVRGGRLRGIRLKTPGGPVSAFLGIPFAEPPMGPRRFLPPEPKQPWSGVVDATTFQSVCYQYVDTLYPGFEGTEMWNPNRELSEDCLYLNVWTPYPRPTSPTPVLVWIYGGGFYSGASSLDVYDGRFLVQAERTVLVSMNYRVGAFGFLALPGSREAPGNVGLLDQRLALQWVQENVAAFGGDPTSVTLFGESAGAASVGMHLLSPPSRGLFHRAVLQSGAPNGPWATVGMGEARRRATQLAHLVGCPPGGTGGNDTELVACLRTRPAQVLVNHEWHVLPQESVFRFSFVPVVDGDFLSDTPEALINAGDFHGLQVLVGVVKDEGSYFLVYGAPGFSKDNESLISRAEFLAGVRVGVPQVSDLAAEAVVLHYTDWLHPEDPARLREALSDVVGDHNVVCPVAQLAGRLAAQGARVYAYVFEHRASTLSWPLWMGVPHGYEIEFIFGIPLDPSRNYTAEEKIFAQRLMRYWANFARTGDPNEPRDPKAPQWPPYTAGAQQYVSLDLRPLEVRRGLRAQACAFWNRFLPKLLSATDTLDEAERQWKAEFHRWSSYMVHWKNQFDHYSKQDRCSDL

[6] = test system: HepG2; test: Cytotoxicity against human HepG2 cells assessed as reduction in cell viability at 0.1 to 50 uM after 48 hrs by SRB assay; type: cell-based; conditions: hepg2, 48 h
[7] = molecular target: T3, Amine oxidase [flavin-containing] A (Homo sapiens, UniProt P21397); test: Inhibition of human recombinant microsomal MAOA expressed in baculovirus infected BTI-TN-5B1- 4 cells using p-tyramine as substrate assessed as decrease in H2O2 production at 10 uM by amplex red-based fluorescence assay
T3 sequence (P21397 whole entry): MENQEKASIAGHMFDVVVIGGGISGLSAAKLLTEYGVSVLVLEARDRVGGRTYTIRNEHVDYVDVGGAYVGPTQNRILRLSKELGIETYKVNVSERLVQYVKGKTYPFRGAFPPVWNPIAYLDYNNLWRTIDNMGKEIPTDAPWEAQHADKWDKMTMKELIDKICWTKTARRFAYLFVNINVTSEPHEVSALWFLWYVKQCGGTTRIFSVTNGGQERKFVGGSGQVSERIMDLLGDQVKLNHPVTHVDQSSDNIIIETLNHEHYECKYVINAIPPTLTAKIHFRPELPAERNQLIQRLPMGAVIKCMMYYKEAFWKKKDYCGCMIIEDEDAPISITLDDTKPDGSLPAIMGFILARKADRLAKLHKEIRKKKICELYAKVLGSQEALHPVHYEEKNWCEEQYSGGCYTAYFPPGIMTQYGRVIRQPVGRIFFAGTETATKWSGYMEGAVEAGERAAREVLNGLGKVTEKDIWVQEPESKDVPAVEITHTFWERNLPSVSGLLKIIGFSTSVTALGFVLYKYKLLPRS

[8] = test system: HepG2; test: Cytotoxicity against human HepG2 cells assessed as reduction in cell viability at 0.1 to 50 uM after 48 hrs by resazurin reduction assay; type: cell-based; conditions: hepg2, 48 h
[9] = molecular target: T4, Amine oxidase [flavin-containing] B (Homo sapiens, UniProt P27338); test: biochemical; type: cell-based
T4 sequence (P27338 whole entry): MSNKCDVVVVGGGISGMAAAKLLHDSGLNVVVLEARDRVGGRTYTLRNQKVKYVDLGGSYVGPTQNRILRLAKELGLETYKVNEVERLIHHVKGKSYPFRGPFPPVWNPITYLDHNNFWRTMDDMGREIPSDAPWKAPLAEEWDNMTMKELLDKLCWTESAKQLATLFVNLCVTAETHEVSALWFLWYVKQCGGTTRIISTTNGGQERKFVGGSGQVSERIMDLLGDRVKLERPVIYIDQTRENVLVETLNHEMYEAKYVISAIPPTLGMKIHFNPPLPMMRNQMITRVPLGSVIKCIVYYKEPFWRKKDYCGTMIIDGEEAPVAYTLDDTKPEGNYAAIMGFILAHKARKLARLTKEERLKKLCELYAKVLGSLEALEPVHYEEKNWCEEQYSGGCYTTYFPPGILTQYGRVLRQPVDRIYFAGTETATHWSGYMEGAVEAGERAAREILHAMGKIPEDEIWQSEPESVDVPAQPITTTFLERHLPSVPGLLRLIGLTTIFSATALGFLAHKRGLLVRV
Description: Inhibition of human recombinant MAOB expressed in baculovirus infected BTI-TN-5B1- 4 cells using p-tyramine as substrate assessed as decrease in H2O2 production by amplex red-based fluorescence assay

[10] = in vitro; conditions: PAMPA
Description: Effective permeability of the compound at 1 mg/ml after 4 hrs by BBB-PAMPA method

[11] = molecular target: T3, Amine oxidase [flavin-containing] A; test: Reversible competitive inhibition of human recombinant microsomal MAOA expressed in baculovirus infected BTI-TN-5B1- 4 cells using p-tyramine as substrate assessed as decrease in H2O2 production by Dixon plot analysis
[12] = molecular target: T4, Amine oxidase [flavin-containing] B; test: Competitive inhibition of human recombinant microsomal MAOB expressed in baculovirus infected BTI-TN-5B1- 4 cells using p-tyramine as substrate assessed as decrease in H2O2 production at 500 to 1000 nM by Lineweaver-Burk plot analysis
[13] = molecular target: T3, Amine oxidase [flavin-containing] A; test: Competitive inhibition of human recombinant microsomal MAOA expressed in baculovirus infected BTI-TN-5B1- 4 cells using p-tyramine as substrate assessed as decrease in H2O2 production at 1000 to 2000 nM by Lineweaver-Burk plot analysis
[14] = test system: SH-SY5Y; test: Cytotoxicity against human SH-SY5Y cells assessed as reduction in cell viability at 25 to 50 uM after 48 hrs by resazurin reduction assay; type: cell-based
[15] = Cytotoxicity against human SH-SY5Y cells assessed as cell mass at 50 uM after 48 hrs by SRB assay relative to control; type: cell-based; conditions: read-out: Activity
[16] = molecular target: T2, Acetylcholinesterase; test: Mixed type inhibition of human AChE using acetylthiocholine iodide as substrate pretreated for 5 mins followed by substrate addition measured after 5 mins by Dixon plot analysis
[17] = molecular target: T3, Amine oxidase [flavin-containing] A; test: Reversible inhibition of human recombinant microsomal MAOA expressed in baculovirus infected BTI-TN-5B1- 4 cells using p-tyramine as substrate assessed as decrease in H2O2 production at IC80 after 60 mins; conditions: 1 h
[18] = molecular target: T2, Acetylcholinesterase; test: Mixed type inhibition of human AChE at 0.05 to 0.20 uM using acetylthiocholine iodide as substrate pretreated for 5 mins followed by substrate addition measured after 5 mins by Lineweaver burk plot analysis
[19] = molecular target: T3, Amine oxidase [flavin-containing] A; test: biochemical
Description: Inhibition of human recombinant microsomal MAOA expressed in baculovirus infected BTI-TN-5B1- 4 cells using p-tyramine as substrate assessed as decrease in H2O2 production by amplex red-based fluorescence assay

[20] = molecular target: T4, Amine oxidase [flavin-containing] B; test: Reversible competitive inhibition of human recombinant microsomal MAOB expressed in baculovirus infected BTI-TN-5B1- 4 cells using p-tyramine as substrate assessed as decrease in H2O2 production by Dixon plot analysis
[21] = molecular target: T1, Cholinesterase; test: Inhibition of human serum BuChE using butyrylthiocholine as substrate pretreated for 5 mins followed by substrate addition measured after 5 mins by Ellman's method
[22] = molecular target: T3, Amine oxidase [flavin-containing] A; test: Inhibition of human recombinant microsomal MAOA expressed in baculovirus infected BTI-TN-5B1- 4 cells using p-tyramine as substrate assessed as decrease in H2O2 production at 100 uM by amplex red-based fluorescence assay
[23] = in vitro; conditions: PAMPA; remark: listed apart in the source
Description: Effective permeability of the compound at 25 ug/ml after 18 hrs by BBB-PAMPA method

Structure (SMILES)	IC50 [1]	Activity [2]	inhibition [3]	Activity [4]	IC50 [5]	Activity [6]	inhibition (INH) [7]	Activity [8]	IC50 [9]	Papp at 4 h, 1 mg/ml [10]	inhibition (INH) [12]	Ki [20]	other results
O=C(O)/C=C/c1ccc2occ(C(=O)Nc3ccccc3)c(=O)c2c1	> 10000 nM	Non-Toxic	inactive	Non-Toxic	9250 nM	Non-Toxic	Not Active	Non-Toxic	4660 nM	1.2 ×10⁻⁶ cm/s	–	–	–
Cc1ccc(NC(=O)c2cc(=O)c3cc(/C=C/C(=O)OCCN(C)C)ccc3o2)cc1	> 10000 nM	–	inactive	–	210 nM	–	–	–	3810 nM	5.2 ×10⁻⁶ cm/s	Active	478 nM	Ki [11]: 57 nM; inhibition (INH) [13]: Active; Activity [14]: Toxic; viability at 48 h, 50 µM [15]: 44%; Ki [16]: 190 nM; inhibition (INH) [17]: Active; inhibition [18]: Active; IC50 [19]: 940 nM
CN(C)CCOC(=O)/C=C/c1ccc2occ(C(=O)Nc3ccccc3)c(=O)c2c1	> 10000 nM	Non-Toxic	–	Non-Toxic	3690 nM	Non-Toxic	Not Active	Non-Toxic	630 nM	6.4 ×10⁻⁶ cm/s	Active	337 nM	IC50 [21]: 4320 nM
C[C@H](NCc1ccc(OCc2cccc(F)c2)cc1)C(N)=O [SAFINAMIDE]	–	–	–	–	–	–	–	–	–	–	–	–	inhibition (INH) [22]: Not Active
C[C@]12CCC(=O)C=C1CC[C@@H]1[C@@H]2[C@@H](O)C[C@]2(C=O)[C@@H](C(=O)CO)CC[C@@H]12 [ALDOSTERONE]	–	–	–	–	–	–	–	–	–	1 ×10⁻⁶ cm/s	–	–	Papp at 18 h, 25 ug/ml [23]: 1.2 ×10⁻⁶ cm/s
